Where a name gives a salt, the structure may show the parent alone. Read-outs that look alike come from different tables or passages of the source.
Key:
[1] = test system: HL-60; test: CellTiterGlo cell viability assay, HL-60; type: cell-based; conditions: Homo sapiens, HL-60, 72 h; for inhibition at 198 µM: read-out: Top Inh
In short: (§1)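 Duplicate wells received test compound across nine 3.16-fold steps (198 μM to 19.8 nM final) for about 3 days under standard culture. Viability was read by CTG luminescence, and absolute EC50 plus inhibition at highest dose derived.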

[2] = test system: RL; test: CellTiterGlo cell viability assay, RL; type: cell-based; conditions: Homo sapiens, 72 h
In short: as §1

[3] = test system: HT29; test: CellTiterGlo cell viability assay, HT29; type: cell-based; conditions: Homo sapiens, HT29, 72 h; for EC50: read-out: Ab EC50; for inhibition at 198 µM: percentage inhibition at the highest concentration tested, read-out: Top Inhibit
In short: as §1

[4] = test system: K562; test: CellTiterGlo cell viability assay, K562; type: cell-based; conditions: Homo sapiens; for EC50: read-out: Ab EC50
In short: as §1

[5] = test system: MOLT-4; test: CellTiterGlo cell viability assay, MOLT-4; type: cell-based
In short: as §1

[6] = test system: Mia-Pa-Ca-2; test: CellTiterGlo cell viability assay, Mia-Pa-Ca-2; type: cell-based; conditions: Homo sapiens, MIA PaCa-2, Mia-Pa-Ca-2, 72 h; for EC50: absolute EC50, read-out: Ab EC50; for inhibition at 198 µM: percentage inhibition at the highest concentration tested, read-out: Top Inhibit
Method: A subset of compounds of the invention were assayed for their cytotoxic activity in an array of different solid tumours and haematological malignancies using the following assay.
In vitro viability assay were performed to assess the effects of compounds on cell viability in selected cell lines over 72 h using the CellTiterGlo (CTG, Promega-G7573) assay. The tests were performed in duplicates with treatment of compounds at 9 points, 3.16 folds titration in 96 well plates over ˜72 h. The compound starting concentrations were 198 μM. Cell viability assay using CellTiterGlo in 96-well plate were performed. Compound treatment 72 h, standard growth conditions, duplicates. Compounds were dissolved to 40 mM with thawed […]. Compounds were serially diluted at 3.16 fold in thawed DMSO, and warmed to 37° C. before being dissolved in media (2 μL+200 μL). After compounds were dissolved in media, media containing compounds were warmed to 37° C. in incubator and then compounds in media were added to cell plates (50 μL+50 μL) in duplicates. The compounds' final concentrations were from 198 μM to 19.8 nM. All compound solubilities were checked and recorded again, then the plates were transferred to CO2 tissue culture incubator immediately and incubated for 3 days. DMSO final concentration is 0.5%. The parent nucleoside in each case was tested as a comparator, as was an exemplary ProTide. The drugs of the ProTide class that were tested were as follows:
The following cell lines were tested and are referred to in the Table 1 below:
In Tables 2, 3 and 4, ‘Ab EC50’ refers to the absolute EC50 and ‘Top inhibit’ refers to the percentage inhibition achieved at the highest concentration tested.

[7] = test system: HepG2; test: CellTiterGlo cell viability assay, HepG2; type: cell-based
In short: as §1

[8] = test system: RPMI-8226; test: CellTiterGlo cell viability assay, RPMI-8226; type: cell-based, Human; conditions: Homo sapiens, RPMI-8226, 72 h
In short: as §1

[9] = test system: CCRF-CEM; test: CellTiterGlo cell viability assay, CCRF-CEM; type: cell-based; conditions: Homo sapiens, 72 h; for EC50: read-out: Ab EC50; for inhibition at 198 µM: percentage inhibition at the highest concentration tested, read-out: Top Inh
In short: as §1

[10] = test system: OVCAR 3; test: CellTiterGlo cell viability assay, OVCAR 3; type: cell-based; conditions: Homo sapiens; for inhibition at 198 µM: percentage inhibition at the highest concentration tested, read-out: Top Inhibit; for EC50: read-out: Ab EC50
In short: as §1

[11] = in vitro; conditions: human, hepatocytes, pH 7.3
[12] = test system: MCF-7; test: CellTiterGlo cell viability assay, MCF-7; type: cell-based; conditions: Homo sapiens, MCF-7, 72 h; for EC50: read-out: Ab EC50; for inhibition at 198 µM: percentage inhibition at the highest concentration tested, read-out: Top Inhibit
In short: as §1

[13] = test system: KG-1; test: CellTiterGlo cell viability assay, KG-1; type: cell-based; conditions: Homo sapiens, KG-1, 72 h
In short: as §1

[14] = absolute EC50, numeric values, read-out: Ab EC50
[15] = percentage inhibition at the highest concentration tested
[16] = percentage inhibition at the highest concentration tested, read-out: Top Inh
[17] = HT-29, 72 h, absolute EC50, numeric values
[18] = K562, 72 h, percentage inhibition at the highest concentration tested, read-out: Top Inh
[19] = Homo sapiens, MOLT-4, 72 h, percentage inhibition at the highest concentration tested, read-out: Top Inh
[20] = Homo sapiens; MOLT-4, 72 h, absolute EC50, numeric values; read-out: Ab EC50
[21] = Homo sapiens, HepG2, 72 h, percentage inhibition at the highest concentration tested, read-out: Top Inhibit
[22] = Table 3 classes, read-out: Ab EC50
[23] = Table 4 classes, read-out: Ab EC50

SMILES: C[C@H](NP(=O)(Oc1ccccc1)OP(=O)(O)OC[C@@H]1C[C@H](O)[C@H](n2cnc3c(N)ncnc32)O1)C(=O)OCc1ccccc1 (stereo partly drawn) [Example 6, 3′-Deoxyadenosine-5′-O-[phenyl(benzoxy-L-alaninyl)] Diphosphate Triethylammonium Salt]
- EC50 [1, 14]: 62.5 µM
- inhibition at 198 µM [1, 15]: 80%
- EC50 [2, 14]: 88.8 µM
- inhibition at 198 µM [2, 16]: 72%
- EC50 [3, 17]: 24.3 µM
- inhibition at 198 µM ([3]; HT-29, 72 h): 82%
- inhibition at 198 µM [4, 18]: 81%
- EC50 ([4]; K562, 72 h, absolute EC50, numeric values): 52.3 µM
- inhibition at 198 µM [5, 19]: 95%
- EC50 [5, 20]: 14.2 µM
- EC50 [6]: 40.9 µM
- inhibition at 198 µM [6]: 95.7%

SMILES: Nc1nc(Cl)nc2c1ncn2[C@@H]1O[C@H](COP(=O)(O)OP(=O)(NCC(=O)OCc2ccccc2)Oc2ccccc2)C(O)[C@H]1F (stereo partly drawn) [Example 3, 2-Chloro-9-(2′-Deoxy-2′-fluoro-β-D-arabinofuranosyl)adenine-5′-O-[phenyl(benzoxy-L-glycinyl)] Diphosphate Triethylammonium Salt]
- EC50 ([7]; Homo sapiens, HepG2, 72 h, Table 3 classes, read-out: Ab EC50): 2 to 5 µM
- inhibition at 198 µM [7, 21]: 53%
- EC50 [8, 22]: 5 to 10 µM
- inhibition at 198 µM [8, 16]: 91.6%
- EC50 [1, 22]: < 0.2 µM
- inhibition at 198 µM [1, 15]: 97%
- EC50 [2, 22]: 0.2 to 2 µM
- inhibition at 198 µM [2, 16]: 63%
- EC50 ([3]; HT-29, 72 h, Table 3 classes): 0.2 to 2 µM
- inhibition at 198 µM ([3]; HT-29, 72 h): 61%
- inhibition at 198 µM [4, 18]: 24%
- EC50 ([4]; K562, 72 h, Table 3 classes): > 10 µM
- inhibition at 198 µM [5, 19]: 96%
- EC50 ([5]; Homo sapiens; MOLT-4, 72 h, Table 3 classes; read-out: Ab EC50): < 0.2 µM
- EC50 ([9]; Table 3 classes): < 0.2 µM
- inhibition at 198 µM [9]: 99.6%
- inhibition at 198 µM ([10]; OVCAR-3, 72 h): 49%
- EC50 ([10]; OVCAR 3, 72 h, Table 3 classes): > 10 µM
- half-life [11]: 0.333 to 1.67 h
- EC50 ([12]; MCF7, 72 h, Table 3 classes): 2 to 5 µM
- inhibition at 198 µM ([12]; MCF7, 72 h): 59%

SMILES: C[C@H](NP(=O)(OC[C@@H]1C[C@H](O)[C@H](n2cnc3c(N)ncnc32)O1)Oc1ccccc1)C(=O)OCc1ccccc1 (stereo partly shown) [E, reference compound]
- EC50 ([8]; read-out: Ab EC50, RPMI-8226, 72 h, absolute EC50, numeric values): 19.8 µM
- inhibition at 198 µM ([8]; read-out: Top Inh, RPMI-8226, 72 h, percentage inhibition at the highest concentration tested): 97.8%
- EC50 ([1]; read-out: Ab EC50, HL-60, 72 h, absolute EC50, numeric values): 31.1 µM
- inhibition at 198 µM [1]: 97%
- EC50 ([2]; read-out: Ab EC50, RL, 72 h, absolute EC50, numeric values): 18.3 µM
- inhibition at 198 µM ([2]; read-out: Top Inh, RL, 72 h, percentage inhibition at the highest concentration tested): 90.5%
- EC50 [3, 17]: 10.8 µM
- inhibition at 198 µM ([3]; HT-29, 72 h): 97%
- EC50 ([4]; K562, 72 h): 11 µM
- inhibition at 198 µM ([4]; K562, 72 h, read-out: Top Inh, K562, 72 h, percentage inhibition at the highest concentration tested): 87%
- EC50 ([5]; Homo sapiens, MOLT-4, 72 h, absolute EC50, numeric values, read-out: Ab EC50): 5.23 µM
- inhibition at 198 µM [5, 19]: 96%
- EC50 [6]: 7.92 µM
- inhibition at 198 µM [6]: 98%

SMILES: Nc1ccn([C@@H]2O[C@H](CO)[C@@H](O)C2(F)F)c(=O)n1 [Gemcitabine, reference compound]
- EC50 ([7]; Homo sapiens; HepG2, 72 h, absolute EC50, numeric values; read-out: Ab EC50): 28 µM
- inhibition at 198 µM ([7]; Homo sapiens; HepG2, 72 h, percentage inhibition at the highest concentration tested; read-out: Top Inhibit): 54%
- EC50 ([3]; HT-29, absolute EC50, numeric values): 0.22 µM
- inhibition at 198 µM ([3]; HT-29): 65%
- EC50 [5, 20]: 0.004 µM
- inhibition at 198 µM ([5]; Homo sapiens; MOLT-4, 72 h, percentage inhibition at the highest concentration tested; read-out: Top Inh): 88%
- EC50 [6]: 0.03 µM
- inhibition at 198 µM [6]: 79%
- EC50 ([9]; absolute EC50, numeric values): 0.02 µM
- inhibition at 198 µM [9]: 101%
- EC50 ([10]; OVCAR 3, 72 h, absolute EC50, numeric values): > 198 µM
- inhibition at 198 µM ([10]; OVCAR 3, 72 h): 44%
- EC50 ([12]; MCF7, absolute EC50, numeric values): 0.011 µM
- inhibition at 198 µM ([12]; MCF7): 53%

SMILES: CC(C)(NP(=O)(Oc1ccccc1)OP(=O)(O)OC[C@H]1O[C@@H](n2cnc3c(N)nc(Cl)nc32)[C@H](F)C1O)C(=O)OCc1ccccc1 (stereo partly drawn) [Example 10, 2-Chloro-9-(2′-Deoxy-2′-fluoro-β-D-arabinofuranosyl)adenine-5′-O-[phenyl(benzoxy-dimethylglycinyl)] Diphosphate Triethylammonium Salt]
- EC50 [13, 23]: < 0.2 µM
- inhibition at 198 µM ([13]; percentage inhibition at the highest concentration tested, read-out: Top Inhibit): 92%
- EC50 ([7]; Homo sapiens, HepG2, 72 h, Table 4 classes, read-out: Ab EC50): 1 to 5 µM
- inhibition at 198 µM [7, 21]: 55%
- EC50 [8, 23]: > 10 µM
- inhibition at 198 µM [8, 16]: 80%
- EC50 [1, 23]: < 0.2 µM
- inhibition at 198 µM [1, 15]: 96%
- inhibition at 198 µM [2, 16]: 48%
- EC50 ([3]; HT-29, 72 h, Table 4 classes): 0.2 to 1 µM
- inhibition at 198 µM ([3]; HT-29, 72 h): 70%
- inhibition at 198 µM [4, 18]: 37%
- EC50 ([4]; K562, K 562, 72 h, Table 4 classes): > 10 µM
- inhibition at 198 µM [5, 19]: 93%
- EC50 ([5]; Homo sapiens; MOLT-4, 72 h, Table 4 classes; read-out: Ab EC50): < 0.2 µM
- EC50 ([9]; Table 4 classes): < 0.2 µM
- inhibition at 198 µM [9]: 99%
- inhibition at 198 µM ([10]; OVCAR-3, 72 h): 42%
- EC50 ([10]; OVCAR 3, 72 h, Table 4 classes): > 10 µM
- EC50 ([12]; MCF7, 72 h, Table 4 classes): > 10 µM
- inhibition at 198 µM ([12]; MCF7, 72 h): 51%

From patent publication US11560400B2, “Salts of diphosphate phosphoramidate of nucleosides as anticancer compounds” (NuCana plc, priority 2017, dated 2023)
